Source: US20210307271A1, “OPTIMIZATION OF ALGAL PRODUCT PRODUCTION THROUGH UNCOUPLING CELL PROLIFERATION AND ALGAL PRODUCT PRODUCTION” (priority 2008, published 2021)

Legend:
Type in all cases: cell-based
Parameters in all cases: unit not given here
Scenedesmus obliquus [1] = test: Effect of hormone concentrations on growth rate, photoheterotrophic conditions, 48 hours; settings: control 0.41 ± 0.042
Scenedesmus obliquus [2] = test: Effect of hormone concentrations on growth rate, heterotrophic conditions, 48 hours; settings: control 0.35 ± 0.023
Chlorella protothecoides [3] = test: Effect of hormone concentrations on growth rate, photoheterotrophic conditions, 48 hours; settings: control 1.05 ± 0.020
Chlorella protothecoides [4] = test: Effect of hormone concentrations on growth rate, heterotrophic conditions, 48 hours; settings: control 1.54 ± 0.080

Work on O=C(O)Cc1cccc2ccccc12 [1-Naphthaleneacetic acid, 1-naphthaleneacetic acid] yielded a growth rate (Scenedesmus obliquus [1]; hormone 0.01 ng) of 0.84 ± 0.087, a growth rate (Scenedesmus obliquus [1]; hormone 0.1 ng) of 0.85 ± 0.042 and a growth rate (Scenedesmus obliquus [1]; hormone 1 ng) of 0.81 ± 0.042. It also gave a growth rate (Scenedesmus obliquus [1]; hormone 10 ng) of 0.80 ± 0.141, a growth rate (Scenedesmus obliquus [1]; hormone 100 ng) of 0.73 ± 0.046 and a growth rate (Scenedesmus obliquus [2]; hormone 0.01 ng) of 0.26 ± 0.042. It also gave a growth rate (Scenedesmus obliquus [2]; hormone 0.1 ng) of 0.28 ± 0.011, a growth rate (Scenedesmus obliquus [2]; hormone 1 ng) of 0.33 ± 0.020 and a growth rate (Scenedesmus obliquus [2]; hormone 10 ng) of 0.28 ± 0.099. For the same molecule, the growth rate (Scenedesmus obliquus [2]; hormone 100 ng) was 0.39 ± 0.053, the growth rate (Chlorella protothecoides [3]; hormone 0.01 ng) was 1.00 ± 0.058 and the growth rate (Chlorella protothecoides [3]; hormone 0.1 ng) was 1.02 ± 0.050. It also gave a growth rate (Chlorella protothecoides [3]; hormone 1 ng) of 1.05 ± 0.035, a growth rate (Chlorella protothecoides [3]; hormone 10 ng) of 1.07 ± 0.028 and a growth rate (Chlorella protothecoides [3]; hormone 100 ng) of 1.16 ± 0.152. For the same molecule, the growth rate (Chlorella protothecoides [4]; hormone 0.01 ng) was 1.66 ± 0.140, the growth rate (Chlorella protothecoides [4]; hormone 0.1 ng) was 1.54 ± 0.081 and the growth rate (Chlorella protothecoides [4]; hormone 1 ng) was 1.62 ± 0.136. For the same molecule, the growth rate (Chlorella protothecoides [4]; hormone 10 ng) was 1.57 ± 0.028 and the growth rate (Chlorella protothecoides [4]; hormone 100 ng) was 1.62 ± 0.064.
In the case of O=C(O)COc1ccc(Cl)cc1Cl [2,4-Dichlorophenoxyacetic, 2,4-dichlorophenoxyacetic acid], the growth rate (Scenedesmus obliquus [1]; hormone 0.01 ng) was 0.42 ± 0.035, the growth rate (Scenedesmus obliquus [1]; hormone 0.1 ng) was 0.44 ± 0.000 and the growth rate (Scenedesmus obliquus [1]; hormone 1 ng) was 0.47 ± 0.023. The growth rate (Scenedesmus obliquus [1]; hormone 10 ng) was 0.44 ± 0.028, the growth rate (Scenedesmus obliquus [1]; hormone 100 ng) was 0.33 ± 0.042 and the growth rate (Scenedesmus obliquus [2]; hormone 0.01 ng) was 0.28 ± 0.030. The growth rate (Scenedesmus obliquus [2]; hormone 0.1 ng) was 0.23 ± 0.040, the growth rate (Scenedesmus obliquus [2]; hormone 1 ng) was 0.31 ± 0.020 and the growth rate (Scenedesmus obliquus [2]; hormone 10 ng) was 0.24 ± 0.081. The growth rate (Scenedesmus obliquus [2]; hormone 100 ng) was 0.23 ± 0.040, the growth rate (Chlorella protothecoides [3]; hormone 0.01 ng) was 1.09 ± 0.035 and the growth rate (Chlorella protothecoides [3]; hormone 0.1 ng) was 1.08 ± 0.133. The growth rate (Chlorella protothecoides [3]; hormone 1 ng) was 1.01 ± 0.035, the growth rate (Chlorella protothecoides [3]; hormone 10 ng) was 1.08 ± 0.030 and the growth rate (Chlorella protothecoides [3]; hormone 100 ng) was 1.03 ± 0.069. The growth rate (Chlorella protothecoides [4]; hormone 0.01 ng) was 1.40 ± 0.061, the growth rate (Chlorella protothecoides [4]; hormone 0.1 ng) was 1.53 ± 0.069 and the growth rate (Chlorella protothecoides [4]; hormone 1 ng) was 1.43 ± 0.069. For the same molecule, the growth rate (Chlorella protothecoides [4]; hormone 10 ng) was 1.31 ± 0.087 and the growth rate (Chlorella protothecoides [4]; hormone 100 ng) was 1.50 ± 0.081.
c1ccc(CNc2ncnc3nc[nH]c23)cc1 [6-Benzylaminopurine, 6-benzylaminopurine] showed a growth rate (Scenedesmus obliquus [1]; hormone 0.01 ng) of 0.46 ± 0.056, a growth rate (Scenedesmus obliquus [1]; hormone 0.1 ng) of 0.37 ± 0.099 and a growth rate (Scenedesmus obliquus [1]; hormone 1 ng) of 0.47 ± 0.011. The growth rate (Scenedesmus obliquus [1]; hormone 10 ng) was 0.47 ± 0.064, the growth rate (Scenedesmus obliquus [1]; hormone 100 ng) was 0.52 ± 0.060 and the growth rate (Scenedesmus obliquus [2]; hormone 0.01 ng) was 0.28 ± 0.081. It also gave a growth rate (Scenedesmus obliquus [2]; hormone 0.1 ng) of 0.32 ± 0.061, a growth rate (Scenedesmus obliquus [2]; hormone 1 ng) of 0.39 ± 0.092 and a growth rate (Scenedesmus obliquus [2]; hormone 10 ng) of 0.36 ± 0.092. It also gave a growth rate (Scenedesmus obliquus [2]; hormone 100 ng) of 0.33 ± 0.104, a growth rate (Chlorella protothecoides [3]; hormone 0.01 ng) of 1.00 ± 0.030 and a growth rate (Chlorella protothecoides [3]; hormone 0.1 ng) of 1.12 ± 0.011. It also gave a growth rate (Chlorella protothecoides [3]; hormone 1 ng) of 1.07 ± 0.035, a growth rate (Chlorella protothecoides [3]; hormone 10 ng) of 1.04 ± 0.083 and a growth rate (Chlorella protothecoides [3]; hormone 100 ng) of 1.08 ± 0.023. For the same molecule, the growth rate (Chlorella protothecoides [4]; hormone 0.01 ng) was 1.48 ± 0.121, the growth rate (Chlorella protothecoides [4]; hormone 0.1 ng) was 1.54 ± 0.081 and the growth rate (Chlorella protothecoides [4]; hormone 1 ng) was 1.50 ± 0.012. For the same molecule, the growth rate (Chlorella protothecoides [4]; hormone 10 ng) was 1.52 ± 0.117 and the growth rate (Chlorella protothecoides [4]; hormone 100 ng) was 1.46 ± 0.150.
With C=C1C[C@]23C[C@@]1(O)CC[C@H]2[C@@]12C=C[C@H](O)[C@@](C)(C(=O)O1)[C@H]2[C@@H]3C(=O)O [Gibberellic acid] the growth rate (Scenedesmus obliquus [1]; hormone 0.01 ng) was 0.59 ± 0.064, the growth rate (Scenedesmus obliquus [1]; hormone 0.1 ng) was 0.47 ± 0.081 and the growth rate (Scenedesmus obliquus [1]; hormone 1 ng) was 0.56 ± 0.087. The growth rate (Scenedesmus obliquus [1]; hormone 10 ng) was 0.56 ± 0.141, the growth rate (Scenedesmus obliquus [1]; hormone 100 ng) was 0.51 ± 0.110 and the growth rate (Scenedesmus obliquus [2]; hormone 0.01 ng) was 0.44 ± 0.083. The growth rate (Scenedesmus obliquus [2]; hormone 0.1 ng) was 0.50 ± 0.046, the growth rate (Scenedesmus obliquus [2]; hormone 1 ng) was 0.43 ± 0.020 and the growth rate (Scenedesmus obliquus [2]; hormone 10 ng) was 0.36 ± 0.050. It also gave a growth rate (Scenedesmus obliquus [2]; hormone 100 ng) of 0.42 ± 0.064, a growth rate (Chlorella protothecoides [3]; hormone 0.01 ng) of 1.06 ± 0.011 and a growth rate (Chlorella protothecoides [3]; hormone 0.1 ng) of 1.02 ± 0.046. The growth rate (Chlorella protothecoides [3]; hormone 1 ng) was 1.00 ± 0.030, the growth rate (Chlorella protothecoides [3]; hormone 10 ng) was 1.09 ± 0.122 and the growth rate (Chlorella protothecoides [3]; hormone 100 ng) was 1.10 ± 0.070. It also gave a growth rate (Chlorella protothecoides [4]; hormone 0.01 ng) of 1.52 ± 0.201, a growth rate (Chlorella protothecoides [4]; hormone 0.1 ng) of 1.52 ± 0.151 and a growth rate (Chlorella protothecoides [4]; hormone 1 ng) of 1.46 ± 0.090. The growth rate (Chlorella protothecoides [4]; hormone 10 ng) was 1.52 ± 0.099 and the growth rate (Chlorella protothecoides [4]; hormone 100 ng) was 1.46 ± 0.050.
For O=C(O)Cc1c[nH]c2ccccc12 [Indole-3-acetic acid, indole-3-acetic acid], the growth rate (Scenedesmus obliquus [1]; hormone 0.01 ng) was 0.42 ± 0.020, the growth rate (Scenedesmus obliquus [1]; hormone 0.1 ng) was 0.47 ± 0.061 and the growth rate (Scenedesmus obliquus [1]; hormone 1 ng) was 0.49 ± 0.030. It also gave a growth rate (Scenedesmus obliquus [1]; hormone 10 ng) of 0.49 ± 0.023, a growth rate (Scenedesmus obliquus [1]; hormone 100 ng) of 0.62 ± 0.092 and a growth rate (Scenedesmus obliquus [2]; hormone 0.01 ng) of 0.23 ± 0.020. The growth rate (Scenedesmus obliquus [2]; hormone 0.1 ng) was 0.36 ± 0.127, the growth rate (Scenedesmus obliquus [2]; hormone 1 ng) was 0.42 ± 0.081 and the growth rate (Scenedesmus obliquus [2]; hormone 10 ng) was 0.47 ± 0.020. The growth rate (Scenedesmus obliquus [2]; hormone 100 ng) was 0.41 ± 0.053, the growth rate (Chlorella protothecoides [3]; hormone 0.01 ng) was 1.06 ± 0.030 and the growth rate (Chlorella protothecoides [3]; hormone 0.1 ng) was 1.05 ± 0.019. It also gave a growth rate (Chlorella protothecoides [3]; hormone 1 ng) of 0.97 ± 0.020, a growth rate (Chlorella protothecoides [3]; hormone 10 ng) of 1.13 ± 0.019 and a growth rate (Chlorella protothecoides [3]; hormone 100 ng) of 1.02 ± 0.061. For the same molecule, the growth rate (Chlorella protothecoides [4]; hormone 0.01 ng) was 1.62 ± 0.133, the growth rate (Chlorella protothecoides [4]; hormone 0.1 ng) was 1.61 ± 0.072 and the growth rate (Chlorella protothecoides [4]; hormone 1 ng) was 1.49 ± 0.122. It also gave a growth rate (Chlorella protothecoides [4]; hormone 10 ng) of 1.60 ± 0.099 and a growth rate (Chlorella protothecoides [4]; hormone 100 ng) of 1.60 ± 0.076.
c1coc(CNc2ncnc3[nH]cnc23)c1 [Kinetin, kinetin] showed a growth rate (Scenedesmus obliquus [1]; hormone 0.01 ng) of 0.57 ± 0.133, a growth rate (Scenedesmus obliquus [1]; hormone 0.1 ng) of 0.73 ± 0.042 and a growth rate (Scenedesmus obliquus [1]; hormone 1 ng) of 0.92 ± 0.113. The growth rate (Scenedesmus obliquus [1]; hormone 10 ng) was 0.37 ± 0.070, the growth rate (Scenedesmus obliquus [1]; hormone 100 ng) was 0.36 ± 0.060 and the growth rate (Scenedesmus obliquus [2]; hormone 0.01 ng) was 0.28 ± 0.061. The growth rate (Scenedesmus obliquus [2]; hormone 0.1 ng) was 0.26 ± 0.076, the growth rate (Scenedesmus obliquus [2]; hormone 1 ng) was 0.36 ± 0.042 and the growth rate (Scenedesmus obliquus [2]; hormone 10 ng) was 0.31 ± 0.028. It also gave a growth rate (Scenedesmus obliquus [2]; hormone 100 ng) of 0.28 ± 0.076, a growth rate (Chlorella protothecoides [3]; hormone 0.01 ng) of 1.08 ± 0.023 and a growth rate (Chlorella protothecoides [3]; hormone 0.1 ng) of 1.10 ± 0.042. It also gave a growth rate (Chlorella protothecoides [3]; hormone 1 ng) of 1.02 ± 0.011, a growth rate (Chlorella protothecoides [3]; hormone 10 ng) of 1.18 ± 0.050 and a growth rate (Chlorella protothecoides [3]; hormone 100 ng) of 1.19 ± 0.035. It also gave a growth rate (Chlorella protothecoides [4]; hormone 0.01 ng) of 1.60 ± 0.050, a growth rate (Chlorella protothecoides [4]; hormone 0.1 ng) of 1.50 ± 0.050 and a growth rate (Chlorella protothecoides [4]; hormone 1 ng) of 1.44 ± 0.110. It also gave a growth rate (Chlorella protothecoides [4]; hormone 10 ng) of 1.60 ± 0.070 and a growth rate (Chlorella protothecoides [4]; hormone 100 ng) of 1.58 ± 0.061.
